US20220363689A1, “INHIBITOR OF BTK AND MUTANTS THEREOF” (Newave Pharmaceutical Inc., priority 2019, published 2022)

Tests used:
EGFR = EGFR (Homo sapiens, UniProt P00533); experiment: Caliper-based kinase assay, off-target EGFR; format: biochemical; details: Cys-481 homologous kinase panel
Source text: (§1) A Caliper-based kinase assay (Caliper Life Sciences, Hopkinton, Mass.) was used to measure inhibition of kinase activity of compounds of the present disclosure. […]

HER2 = HER2 (Homo sapiens, UniProt P04626); experiment: Caliper-based kinase assay, off-target HER2; format: biochemical; details: Cys-481 homologous kinase panel
Source text: as §1

TXK = target: T1, TXK (Homo sapiens, UniProt P42681); experiment: Caliper-based kinase assay, off-target TXK; format: biochemical; details: Cys-481 homologous kinase panel
T1 sequence (P42681 1-527): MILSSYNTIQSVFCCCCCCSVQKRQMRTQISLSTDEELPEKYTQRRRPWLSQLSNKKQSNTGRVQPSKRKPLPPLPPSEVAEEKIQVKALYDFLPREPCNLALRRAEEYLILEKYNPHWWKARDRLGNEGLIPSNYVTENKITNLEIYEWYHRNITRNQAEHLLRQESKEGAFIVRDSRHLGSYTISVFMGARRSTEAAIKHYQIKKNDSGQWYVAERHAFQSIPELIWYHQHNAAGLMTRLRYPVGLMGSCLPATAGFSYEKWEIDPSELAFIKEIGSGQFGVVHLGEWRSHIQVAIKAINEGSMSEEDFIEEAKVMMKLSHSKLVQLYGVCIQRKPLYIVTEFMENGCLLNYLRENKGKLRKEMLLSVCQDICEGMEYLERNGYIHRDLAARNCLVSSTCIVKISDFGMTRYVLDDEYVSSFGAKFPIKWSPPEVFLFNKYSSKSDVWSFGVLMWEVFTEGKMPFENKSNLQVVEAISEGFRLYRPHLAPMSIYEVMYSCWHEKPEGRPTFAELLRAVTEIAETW
Source text: as §1

HER4 = HER4 (Homo sapiens, UniProt Q15303); experiment: Caliper-based kinase assay, off-target HER4; format: biochemical; details: Cys-481 homologous kinase panel
Source text: as §1

BLK = BLK (Homo sapiens, UniProt P51451); experiment: Caliper-based kinase assay, off-target BLK; format: biochemical; details: Cys-481 homologous kinase panel
Source text: as §1

human primary hepatocyte = experiment: Human primary hepatocyte cytotoxicity (ATPlite); format: cell-based; details: about 72 hours incubation
Procedure: Cell viability assay is assayed by PerkinElmer ATPlite™ Luminescence Assay System. Briefly, the human primary hepatocyte are plated at a density of about 1×10^4 cells per well in Costar 96-well plates, and are incubated with different concentrations of compounds for about 72 hours in medium supplemented with 5% FBS. One lyophilized substrate solution vial is then reconstituted by adding 5 mL of substrate buffer solution, and is agitated gently until the solution is homogeneous. About 50 μL of mammalian cell lysis solution is added to 100 μL of cell suspension per well of a microplate, and the plate is shaken for about five minutes in an orbital shaker at −700 rpm. This procedure is used to lyse the cells and to stabilize the ATP. Next, 50 μL substrate solution is added to the wells and microplate is shaken for five minutes in an orbital shaker at −700 rpm. Finally, the luminescence is measured by a PerkinElmer TopCount® Microplate Scintillation Counter. Such assays, carried out with a range of doses of test compounds, allow the determination of the cellular anti-antiproliferative IC50 of the compounds of the present invention.

BMX = target: T2, BMX (Homo sapiens, UniProt P51813); experiment: Caliper-based kinase assay, off-target BMX; format: biochemical; details: Cys-481 homologous kinase panel
T2 sequence (P51813 1-675): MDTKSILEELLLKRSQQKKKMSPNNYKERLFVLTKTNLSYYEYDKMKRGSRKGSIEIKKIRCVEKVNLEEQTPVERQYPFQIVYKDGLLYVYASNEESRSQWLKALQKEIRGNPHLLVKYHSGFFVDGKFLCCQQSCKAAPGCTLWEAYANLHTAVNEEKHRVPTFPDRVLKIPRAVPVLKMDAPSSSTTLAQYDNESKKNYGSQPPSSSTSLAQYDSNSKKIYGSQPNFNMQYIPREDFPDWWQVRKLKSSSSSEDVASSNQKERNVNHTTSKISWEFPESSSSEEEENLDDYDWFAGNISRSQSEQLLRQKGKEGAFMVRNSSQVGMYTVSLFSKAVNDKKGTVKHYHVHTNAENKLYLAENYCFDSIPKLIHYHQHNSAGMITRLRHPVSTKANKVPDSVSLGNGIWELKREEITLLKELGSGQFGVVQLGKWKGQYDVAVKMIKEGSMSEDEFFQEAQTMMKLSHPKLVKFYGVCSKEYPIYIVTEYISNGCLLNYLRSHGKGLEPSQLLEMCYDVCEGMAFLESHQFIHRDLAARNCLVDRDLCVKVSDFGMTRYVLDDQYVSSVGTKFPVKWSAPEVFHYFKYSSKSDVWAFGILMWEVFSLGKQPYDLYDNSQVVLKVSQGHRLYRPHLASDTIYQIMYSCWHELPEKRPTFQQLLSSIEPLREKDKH
Source text: as §1

TEC = target: T3, TEC (Homo sapiens, UniProt P42680); experiment: Caliper-based kinase assay, off-target TEC; format: biochemical; details: Cys-481 homologous kinase panel
T3 sequence (P42680 1-631): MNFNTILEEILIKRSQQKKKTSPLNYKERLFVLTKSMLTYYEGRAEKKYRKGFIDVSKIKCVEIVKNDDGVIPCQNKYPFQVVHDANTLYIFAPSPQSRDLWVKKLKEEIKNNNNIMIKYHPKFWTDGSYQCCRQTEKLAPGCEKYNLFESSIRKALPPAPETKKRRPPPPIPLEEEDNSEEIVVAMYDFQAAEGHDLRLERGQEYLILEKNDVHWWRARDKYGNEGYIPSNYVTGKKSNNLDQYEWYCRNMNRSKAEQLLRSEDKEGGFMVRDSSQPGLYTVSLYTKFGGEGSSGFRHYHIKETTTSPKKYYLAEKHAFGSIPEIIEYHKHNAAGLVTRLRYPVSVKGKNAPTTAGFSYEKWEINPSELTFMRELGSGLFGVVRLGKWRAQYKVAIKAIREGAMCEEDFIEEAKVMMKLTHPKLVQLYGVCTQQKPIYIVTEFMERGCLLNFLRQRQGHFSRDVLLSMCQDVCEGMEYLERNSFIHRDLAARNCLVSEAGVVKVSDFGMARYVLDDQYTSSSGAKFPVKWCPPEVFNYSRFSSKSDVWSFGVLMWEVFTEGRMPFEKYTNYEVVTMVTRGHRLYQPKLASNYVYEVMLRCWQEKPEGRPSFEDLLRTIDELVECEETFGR
Source text: as §1

Sequence of BLK (P51451 whole entry): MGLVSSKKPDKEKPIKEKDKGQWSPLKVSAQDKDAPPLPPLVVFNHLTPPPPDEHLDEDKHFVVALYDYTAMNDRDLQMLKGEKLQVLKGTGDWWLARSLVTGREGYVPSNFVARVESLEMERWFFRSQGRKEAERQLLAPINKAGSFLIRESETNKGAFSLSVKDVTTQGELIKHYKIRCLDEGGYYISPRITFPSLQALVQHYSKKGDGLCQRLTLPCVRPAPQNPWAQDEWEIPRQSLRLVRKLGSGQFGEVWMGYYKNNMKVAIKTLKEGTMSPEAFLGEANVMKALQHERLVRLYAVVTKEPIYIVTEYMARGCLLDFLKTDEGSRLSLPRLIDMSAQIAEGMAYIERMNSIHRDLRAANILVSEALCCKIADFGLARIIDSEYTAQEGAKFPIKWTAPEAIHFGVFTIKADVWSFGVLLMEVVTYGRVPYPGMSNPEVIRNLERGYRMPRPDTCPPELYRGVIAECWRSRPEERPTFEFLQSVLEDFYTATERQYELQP
Sequence of HER4 (Q15303 26-1308): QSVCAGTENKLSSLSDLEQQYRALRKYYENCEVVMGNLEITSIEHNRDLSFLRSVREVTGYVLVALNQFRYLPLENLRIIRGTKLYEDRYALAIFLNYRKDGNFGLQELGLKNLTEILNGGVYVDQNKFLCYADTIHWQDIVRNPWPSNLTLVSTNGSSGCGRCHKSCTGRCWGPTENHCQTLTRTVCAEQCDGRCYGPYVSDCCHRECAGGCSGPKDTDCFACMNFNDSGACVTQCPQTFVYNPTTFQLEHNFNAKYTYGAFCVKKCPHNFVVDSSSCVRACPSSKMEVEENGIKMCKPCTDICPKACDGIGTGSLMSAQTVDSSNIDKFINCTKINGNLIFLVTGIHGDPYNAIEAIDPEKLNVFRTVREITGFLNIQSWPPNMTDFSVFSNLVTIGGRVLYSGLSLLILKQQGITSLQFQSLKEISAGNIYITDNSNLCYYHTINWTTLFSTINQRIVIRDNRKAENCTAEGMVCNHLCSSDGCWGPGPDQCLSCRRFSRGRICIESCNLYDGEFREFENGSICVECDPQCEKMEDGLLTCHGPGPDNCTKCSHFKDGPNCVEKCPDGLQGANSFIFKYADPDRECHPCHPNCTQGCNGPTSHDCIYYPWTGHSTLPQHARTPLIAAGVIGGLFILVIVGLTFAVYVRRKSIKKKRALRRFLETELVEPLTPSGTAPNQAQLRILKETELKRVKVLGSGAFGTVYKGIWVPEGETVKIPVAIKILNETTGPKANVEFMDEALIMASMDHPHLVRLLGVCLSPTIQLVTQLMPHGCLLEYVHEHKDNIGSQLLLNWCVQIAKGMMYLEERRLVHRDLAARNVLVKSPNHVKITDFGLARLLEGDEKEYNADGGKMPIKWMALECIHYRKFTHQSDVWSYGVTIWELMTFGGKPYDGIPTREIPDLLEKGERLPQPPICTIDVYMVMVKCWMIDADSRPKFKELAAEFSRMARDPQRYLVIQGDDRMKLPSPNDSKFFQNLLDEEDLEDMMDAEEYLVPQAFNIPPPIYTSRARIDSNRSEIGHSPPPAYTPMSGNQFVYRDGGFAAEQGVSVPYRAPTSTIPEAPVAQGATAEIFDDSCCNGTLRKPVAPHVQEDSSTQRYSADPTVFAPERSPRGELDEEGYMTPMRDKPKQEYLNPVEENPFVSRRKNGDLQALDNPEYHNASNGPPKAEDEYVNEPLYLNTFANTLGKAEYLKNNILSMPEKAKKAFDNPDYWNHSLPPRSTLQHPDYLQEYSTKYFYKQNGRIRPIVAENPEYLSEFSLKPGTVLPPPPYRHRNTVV
Sequence of HER2 (P04626 23-1255): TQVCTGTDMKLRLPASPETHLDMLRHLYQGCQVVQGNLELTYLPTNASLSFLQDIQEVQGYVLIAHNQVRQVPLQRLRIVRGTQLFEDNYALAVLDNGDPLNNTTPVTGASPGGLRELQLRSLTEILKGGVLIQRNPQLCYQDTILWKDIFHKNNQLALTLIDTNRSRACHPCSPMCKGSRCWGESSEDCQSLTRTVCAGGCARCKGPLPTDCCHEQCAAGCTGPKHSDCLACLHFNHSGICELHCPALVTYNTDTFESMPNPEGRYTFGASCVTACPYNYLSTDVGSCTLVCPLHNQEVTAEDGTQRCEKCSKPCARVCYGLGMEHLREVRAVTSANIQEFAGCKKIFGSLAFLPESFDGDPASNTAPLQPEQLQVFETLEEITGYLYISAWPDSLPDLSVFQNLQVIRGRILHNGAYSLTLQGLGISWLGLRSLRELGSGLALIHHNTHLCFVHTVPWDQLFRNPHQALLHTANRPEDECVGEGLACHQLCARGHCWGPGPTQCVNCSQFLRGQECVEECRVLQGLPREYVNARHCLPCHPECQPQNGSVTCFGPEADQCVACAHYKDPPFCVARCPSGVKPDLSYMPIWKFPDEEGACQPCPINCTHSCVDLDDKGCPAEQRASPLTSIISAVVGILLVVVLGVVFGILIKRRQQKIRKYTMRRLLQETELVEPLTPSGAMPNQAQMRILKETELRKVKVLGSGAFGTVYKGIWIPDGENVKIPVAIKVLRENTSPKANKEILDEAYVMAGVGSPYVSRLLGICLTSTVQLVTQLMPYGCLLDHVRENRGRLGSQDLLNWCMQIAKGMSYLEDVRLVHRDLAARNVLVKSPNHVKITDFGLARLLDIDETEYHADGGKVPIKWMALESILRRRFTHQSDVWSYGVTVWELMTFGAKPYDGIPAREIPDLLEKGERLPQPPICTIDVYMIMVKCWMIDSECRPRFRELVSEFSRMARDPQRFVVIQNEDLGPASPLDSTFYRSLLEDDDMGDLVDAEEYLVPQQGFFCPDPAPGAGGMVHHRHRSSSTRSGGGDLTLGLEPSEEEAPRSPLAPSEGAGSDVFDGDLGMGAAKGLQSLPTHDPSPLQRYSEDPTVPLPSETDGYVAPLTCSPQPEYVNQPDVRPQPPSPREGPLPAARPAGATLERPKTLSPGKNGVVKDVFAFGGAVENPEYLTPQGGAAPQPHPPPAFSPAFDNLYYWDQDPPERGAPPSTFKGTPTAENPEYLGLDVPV
Sequence of EGFR (P00533 25-1210): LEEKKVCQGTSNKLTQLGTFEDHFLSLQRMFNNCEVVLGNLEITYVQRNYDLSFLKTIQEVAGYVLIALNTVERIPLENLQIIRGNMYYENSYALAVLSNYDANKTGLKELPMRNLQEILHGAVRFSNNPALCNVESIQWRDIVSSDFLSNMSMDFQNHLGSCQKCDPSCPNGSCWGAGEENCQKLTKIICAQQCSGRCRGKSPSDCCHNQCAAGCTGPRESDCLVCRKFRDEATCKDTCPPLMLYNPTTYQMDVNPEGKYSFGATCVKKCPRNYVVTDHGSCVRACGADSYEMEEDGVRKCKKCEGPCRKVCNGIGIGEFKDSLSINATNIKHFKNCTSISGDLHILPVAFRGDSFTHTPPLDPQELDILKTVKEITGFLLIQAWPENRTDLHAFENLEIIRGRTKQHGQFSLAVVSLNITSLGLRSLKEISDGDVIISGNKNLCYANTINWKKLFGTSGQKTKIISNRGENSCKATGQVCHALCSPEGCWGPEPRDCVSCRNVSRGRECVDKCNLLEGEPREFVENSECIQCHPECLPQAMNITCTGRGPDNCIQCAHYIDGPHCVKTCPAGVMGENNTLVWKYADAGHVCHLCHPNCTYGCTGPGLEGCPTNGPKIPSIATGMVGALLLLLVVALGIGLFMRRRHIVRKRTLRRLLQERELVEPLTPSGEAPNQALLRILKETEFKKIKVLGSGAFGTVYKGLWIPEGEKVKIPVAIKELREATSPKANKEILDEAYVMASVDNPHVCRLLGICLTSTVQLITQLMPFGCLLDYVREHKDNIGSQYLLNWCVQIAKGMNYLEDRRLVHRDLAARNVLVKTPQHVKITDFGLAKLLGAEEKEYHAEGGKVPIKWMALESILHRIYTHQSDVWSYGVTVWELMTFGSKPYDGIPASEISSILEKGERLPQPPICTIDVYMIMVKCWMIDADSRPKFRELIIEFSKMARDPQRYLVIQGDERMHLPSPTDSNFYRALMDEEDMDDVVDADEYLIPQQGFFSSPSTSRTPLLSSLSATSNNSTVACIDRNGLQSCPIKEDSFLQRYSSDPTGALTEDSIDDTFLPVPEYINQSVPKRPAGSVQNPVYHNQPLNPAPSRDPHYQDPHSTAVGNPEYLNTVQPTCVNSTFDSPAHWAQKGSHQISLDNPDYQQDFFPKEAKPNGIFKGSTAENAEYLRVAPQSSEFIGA

SMILES	IC50 (EGFR) [nM]	IC50 (HER2) [nM]	IC50 (TXK) [nM]	IC50 (HER4) [nM]	IC50 (BLK) [nM]	IC50 (human primary hepatocyte) [µM]	IC50 (BMX) [nM]	IC50 (TEC) [nM]
C=CC(=O)Nc1cc(Nc2nc(-c3ccnc(N4CCn5c(cc6c5CC(C)(C)C6)C4=O)c3CO)cn(C)c2=O)ccc1N1CCN(C2CCOCC2)C[C@H]1C(F)(F)F [Example 48-S, N-(5-[[6-(2-[4,4-dimethyl-9-oxo-1,10-diazatricyclo[6.4.0.0^[2,6]]dodeca-2(6),7-dien-10-yl]-3-(hydroxymethyl)pyridin-4-yl)-4-methyl-3-oxopyrazin-2-yl]amino]-2-[(2S)-4-(oxan-4-yl)-2-(trifluoromethyl)piperazin-1-yl]phenyl)prop-2-enamide]	> 1000	> 1000	> 1000	> 1000	> 1000	40.9	155	153
CC(C)(/C=C(\C#N)C(=O)N1CCC[C@@H](n2nc(-c3ccc(Oc4ccccc4)cc3F)c3c(N)ncnc32)C1)N1CCN(C2COC2)CC1 [PRN-1008, reference compound]	268	> 1000	0.48	3.1	3.1	23.5	0.36	0.67
C=CC(=O)Nc1cc(Nc2nc(-c3ccnc(N4CCc5c(sc6c5CCCC6)C4=O)c3CO)cn(C)c2=O)ccc1N1CCN(C2CCOCC2)C[C@H]1C(F)(F)F [Example 55-S, N-[5-([6-[3-(hydroxymethyl)-2-[6-oxo-8-thia-5-azatricyclo[7.4.0.0^[2,7]]trideca-1(9), 2(7)-dien-5-yl]pyridin-4-yl]-4-methyl-3-oxopyrazin-2-yl]amino)-2-[(2S)-4-(oxan-4-yl)-2-(trifluoromethyl)piperazin-1-yl]phenyl]prop-2-enamide]	> 1000	> 1000	> 1000	> 1000	> 1000	> 100	183	686
